Source: patent publication US20070020684A1, “Structure of a glucocorticoid receptor ligand binding domain comprising an expanded binding pocket and methods employing same” (priority 2002, published 2007)

T1: PR (Homo sapiens, UniProt P06401)
T1 sequence (P06401 1-933): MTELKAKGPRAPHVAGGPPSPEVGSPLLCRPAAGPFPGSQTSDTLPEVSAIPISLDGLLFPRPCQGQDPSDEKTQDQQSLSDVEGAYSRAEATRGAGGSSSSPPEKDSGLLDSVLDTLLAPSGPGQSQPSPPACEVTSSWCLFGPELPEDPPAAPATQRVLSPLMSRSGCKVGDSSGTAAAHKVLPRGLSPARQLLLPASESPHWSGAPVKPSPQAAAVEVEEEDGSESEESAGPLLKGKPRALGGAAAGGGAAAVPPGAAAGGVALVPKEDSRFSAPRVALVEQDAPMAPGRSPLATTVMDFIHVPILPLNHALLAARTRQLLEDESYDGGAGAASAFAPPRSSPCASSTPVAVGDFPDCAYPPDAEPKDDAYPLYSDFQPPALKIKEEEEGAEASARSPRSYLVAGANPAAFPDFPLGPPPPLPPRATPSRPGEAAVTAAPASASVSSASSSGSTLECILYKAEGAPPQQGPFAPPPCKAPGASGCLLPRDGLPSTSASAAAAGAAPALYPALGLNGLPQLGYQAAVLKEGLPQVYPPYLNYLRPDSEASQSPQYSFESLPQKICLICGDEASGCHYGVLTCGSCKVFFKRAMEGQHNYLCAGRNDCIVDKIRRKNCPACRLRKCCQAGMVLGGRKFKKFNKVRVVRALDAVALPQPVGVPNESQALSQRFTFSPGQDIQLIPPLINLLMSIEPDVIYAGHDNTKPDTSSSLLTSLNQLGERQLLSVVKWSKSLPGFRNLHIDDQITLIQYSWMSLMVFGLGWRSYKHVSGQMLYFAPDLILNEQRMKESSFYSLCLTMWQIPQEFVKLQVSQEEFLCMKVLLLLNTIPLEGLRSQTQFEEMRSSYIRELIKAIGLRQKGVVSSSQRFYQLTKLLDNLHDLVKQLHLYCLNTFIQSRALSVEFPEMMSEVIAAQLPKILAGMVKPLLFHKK

T2: GR LBD (521-777) F602S polypeptide (human glucocorticoid receptor alpha ligand binding domain) (human, UniProt P04150 521-777)
T2 construct: Expressed in E. coli from plasmid 6xHisGS-TGR(521-777) F602S pET24; The fusion tag was cut off with thrombin before complex formation and crystallization; Residue numbers in the text follow full-length human GR; In the crystal, two LBD monomers form a symmetric dimer; also called GRα LBD; GR LBD F602S
T2 sequence: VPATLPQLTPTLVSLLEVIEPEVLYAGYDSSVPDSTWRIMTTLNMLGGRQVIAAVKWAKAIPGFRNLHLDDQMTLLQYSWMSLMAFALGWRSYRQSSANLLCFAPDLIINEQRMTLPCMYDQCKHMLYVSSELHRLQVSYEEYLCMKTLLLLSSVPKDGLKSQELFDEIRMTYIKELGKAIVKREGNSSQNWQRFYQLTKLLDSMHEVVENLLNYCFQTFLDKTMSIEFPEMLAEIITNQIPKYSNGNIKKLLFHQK

B1: TIF2 peptide (residues 740-753 of the human TIF2 protein), KENALLRYLLDKDD (peptide)
peptide: KENALLRYLLDKDD

Columns and labels:
[1] = molecular target: T1, PR; settings: known, potent, non-steroidal agonist; cited from earlier work
[2] = molecular target: T2, GR LBD (521-777) F602S polypeptide …; experiment: X-ray co-crystal structure, 2.6 Å

Molecule	binding affinity for PR (in words) [1]	binding result [2]
CC1CCC(c2ccc(Cl)c(C(F)(F)F)c2)=NN1S(=O)(=O)c1ccc(I)cc1 (centres unmarked) [RWJ-60130, 3-(4-chloro-3-trifluoromethylphenyl)-1-(4iodobenzensulfonyl)-6-methyl-1,4,5,6-tetrahydropyridazine]	high-affinity	–
B1	–	binds
